Test results taken from US9480695B2, “Methods for inducing orexin neurons and agent for treating narcolepsy or eating disorder” (THE UNIVERSITY OF TOKYO, priority 2011, dated 2016).

Tests used:
[1] = test system: Mouse ES cells (J1 strain); test: Hcrt expression in mouse ES cells, SFEB/gfCDM differentiation culture system, RT-PCR; assay type: cell-based; settings: 1.0 mM from 7th day of differentiation culturing
Method: Mouse ES cells (J1 strain) which had been maintained in a medium for an ES cell were seeded on a 96-well low adhering round-bottom culture dish (Nunc) so that the cell count became 10,000 cells per well, and cultured with gfCDM [IMDM/F12 (Invitrogen) added with 5 mg/ml BSA (SIGMA), 450 μM Monothioglycerol (Wako), 1× chemically defined lipid concentrate (Invitrogen), 50 U/ml penicillin/50 μg/ml streptomycin] for 7 days. The cells were cultured in 150 μl of a medium per well. On 7th day of differentiation culturing, the medium was exchanged with a DFK medium [DMEM/F12 (Invitrogen) added with 7 g/1 glucose, 10% KSR, 50 U/ml penicillin/50 μg/ml streptomycin], and on 10th day, half the amount of the medium was exchanged with a DFNB medium [7 g/1 glucose, 1×N2 (Wako), 1×B27 (Invitrogen)] containing 10 ng/ml CNTF. On 13th day of culturing, cells were detached with 0.05% trypsin/EDTA, seeded on a culture dish (Falcon) which had been treated with poly-D-lysine/laminin so that the cell count became 4.8×10^6 cells per 10 cm culture dish, and cultured in a DFNB medium containing 10% FBS, 10 ng/ml CNTF, 50 ng/ml BDNF and 50 ng/ml NT3. The medium was exchanged every 3 days. On 25th day of differentiation culturing, cells were collected and pelletized by a centrifugation operation to remove the culture medium. Thereafter, the pellets were immediately frozen in liquid nitrogen, and stored at −80° C. until use.
The analysis was performed by the same method as that of Example 1.

[2] = test system: orexin gene-expressing cells (orexin neuron) in the lateral hypothalamic area; test: Increase in orexin neuron in vivo, in situ hybridization of lateral hypothalamic area of old mouse; settings: old mouse C57BL/6 male, 5 mg/ml in drinking water, 8 weeks from 53- to 61-week-old, versus non-administration old mouse; FIG. 12
Method: ManNAc was dissolved in drinking water, and the drinking water with a concentration of 5 mg/ml was administered to old mouse (C57BL/6, male) by allowing free access to water for 8 weeks in total from 53-week-old to 61-week-old. After completion of the administration, the aforementioned mouse was immediately perfusion fixed and subjected to in situ hybridization method. As a control group, ManNAc non-administration old mouse (61-week-old at the time point of fixing) and young mouse (10-week-old at the time point of fixing) were used.
Each three mice of ManNAc administration and control groups were anesthetized with Nembutal, and perfusion fixed with formamide fixative (Genostaff). The brain was removed, embedded in paraffin, and 6 μm-thick sections were prepared in the sagittal section direction. […]
was cloned into a […] vector (Promega) and, using the plasmid as a template and DIG RNA Labeling Mix (Roche), a digoxygenin-labeled RNA probe was produced. […] The cells that expressed orexin gene were counted and the average of three animals and the standard error were determined.

CC(=O)N[C@@H]1C(O)O[C@H](CO)[C@@H](O)[C@@H]1O (stereo partly drawn) [ManNAc, N-acetyl-D-mannosamine]
Level of Hcrt expression compared with Neu5Ac-added section [1]: high expression of Hcrt was observed
Expression of Hcrt ([1]; cells collected on 25th day, FIG. 5): expression of Hcrt was recognized
number of orexin gene-expressing cells (orexin neuron) in the lateral hypothalamic area [2]: orexin neuron increased
